The target in assay [1] is Potassium voltage-gated channel subfamily KQT member 2 (Rattus norvegicus, UniProt O88943). As to the kind of experiment: retigabine-insensitive KCNQ2 potentiators, concentration-response, dose response, cell-based, retigabine-insensitive compounds (AID 2654). It counts as functional.
The target of assay [2] is Protein Rev (Human immunodeficiency virus type 1 group M subtype B (isolate HXB2)(HIV-1), UniProt P04618). As to the kind of experiment: inhibitors of Rev binding to RRE RNA, dose response, biochemical, fluorescence polarization, HIV-1 (AID 434976). Also noted: species or system Human immunodeficiency virus 1.
Protein Rev, sequence (P04618 whole entry): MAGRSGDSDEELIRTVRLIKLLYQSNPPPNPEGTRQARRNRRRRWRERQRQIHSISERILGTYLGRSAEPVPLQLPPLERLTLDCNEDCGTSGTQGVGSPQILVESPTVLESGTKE
Assay [3] deals with T1, Long-chain-fatty-acid--AMP ligase FadD28 (Mycobacterium tuberculosis, UniProt P9WQ59).
T1 sequence (P9WQ59 whole entry): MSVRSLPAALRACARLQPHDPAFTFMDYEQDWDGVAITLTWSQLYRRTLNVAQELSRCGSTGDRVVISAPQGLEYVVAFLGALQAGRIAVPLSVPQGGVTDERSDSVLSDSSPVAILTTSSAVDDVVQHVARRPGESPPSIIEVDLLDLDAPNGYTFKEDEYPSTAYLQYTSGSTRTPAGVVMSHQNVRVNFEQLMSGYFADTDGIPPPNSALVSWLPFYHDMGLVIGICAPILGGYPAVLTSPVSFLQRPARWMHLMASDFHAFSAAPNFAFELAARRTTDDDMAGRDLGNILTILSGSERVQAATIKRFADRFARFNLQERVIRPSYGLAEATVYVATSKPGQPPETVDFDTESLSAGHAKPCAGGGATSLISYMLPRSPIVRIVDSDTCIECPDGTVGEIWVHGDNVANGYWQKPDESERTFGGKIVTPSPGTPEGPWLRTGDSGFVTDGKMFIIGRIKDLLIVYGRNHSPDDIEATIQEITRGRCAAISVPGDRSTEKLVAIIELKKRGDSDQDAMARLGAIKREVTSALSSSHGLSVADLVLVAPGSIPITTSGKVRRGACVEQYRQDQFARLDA
As to the kind of experiment: Fluorescence polarization aasay to screen for inhibitors that compete for the binding of FadD28 to a bisubstrate Measured in Biochemical System Using Plate Reader - 2147-01_Inhibitor_Dose_CherryPick_Activity. It counts as functional, Mycobacterium tuberculosis H37Rv. (Fluorescence polarisation rises when a labelled molecule tumbles more slowly, as on binding a larger partner.)

In assay [4] the target is 14-3-3 protein gamma (Homo sapiens, UniProt P61981). As to the kind of experiment: modulators of 14-3-3 gamma client binding – dose response (AID 711). It counts as functional.
14-3-3 protein gamma, sequence (P61981 whole entry): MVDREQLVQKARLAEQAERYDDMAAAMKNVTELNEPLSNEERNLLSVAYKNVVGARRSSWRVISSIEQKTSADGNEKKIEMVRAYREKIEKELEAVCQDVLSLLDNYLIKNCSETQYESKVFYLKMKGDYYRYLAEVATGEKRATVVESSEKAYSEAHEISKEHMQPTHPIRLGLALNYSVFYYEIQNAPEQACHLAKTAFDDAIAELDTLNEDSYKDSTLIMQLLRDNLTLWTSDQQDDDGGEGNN
For assay [5], the target named is Female germline-specific tumor suppressor gld-1 (Caenorhabditis elegans, UniProt Q17339). As to the kind of experiment: inhibitors of GLD-1 binding to TGE RNA, dose response, biochemical, fluorescence polarization, C. elegans (AID 2802).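 Note: fluorescence polarization of labeled TGE RNA bound by purified gld-1 protein.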
Female germline-specific tumor suppressor gld-1, sequence (Q17339 whole entry): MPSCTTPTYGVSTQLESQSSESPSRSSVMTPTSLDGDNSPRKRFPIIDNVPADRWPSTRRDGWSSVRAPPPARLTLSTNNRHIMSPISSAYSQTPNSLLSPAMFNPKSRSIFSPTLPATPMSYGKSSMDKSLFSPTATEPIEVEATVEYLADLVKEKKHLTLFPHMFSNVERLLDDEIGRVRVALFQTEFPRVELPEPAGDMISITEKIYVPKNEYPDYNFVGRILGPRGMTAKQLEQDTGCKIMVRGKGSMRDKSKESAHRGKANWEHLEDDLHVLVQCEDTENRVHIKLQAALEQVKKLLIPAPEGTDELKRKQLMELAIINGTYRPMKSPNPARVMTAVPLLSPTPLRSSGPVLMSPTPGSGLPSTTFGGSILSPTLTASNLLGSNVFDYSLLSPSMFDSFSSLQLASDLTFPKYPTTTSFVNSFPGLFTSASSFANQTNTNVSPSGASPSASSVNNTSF
Assay [6] has as its target Genome polyprotein (dengue virus type 2, UniProt P29990). As to the kind of experiment: Dengue-2 NS5 methyltransferase inhibitors, primary screen, biochemical, confirmation dose response (AID 588689). In kind it is functional.
Assay [7] deals with Cytochrome P450 2D6 (Homo sapiens, UniProt P10635).
Cytochrome P450 2D6, sequence (P10635 whole entry): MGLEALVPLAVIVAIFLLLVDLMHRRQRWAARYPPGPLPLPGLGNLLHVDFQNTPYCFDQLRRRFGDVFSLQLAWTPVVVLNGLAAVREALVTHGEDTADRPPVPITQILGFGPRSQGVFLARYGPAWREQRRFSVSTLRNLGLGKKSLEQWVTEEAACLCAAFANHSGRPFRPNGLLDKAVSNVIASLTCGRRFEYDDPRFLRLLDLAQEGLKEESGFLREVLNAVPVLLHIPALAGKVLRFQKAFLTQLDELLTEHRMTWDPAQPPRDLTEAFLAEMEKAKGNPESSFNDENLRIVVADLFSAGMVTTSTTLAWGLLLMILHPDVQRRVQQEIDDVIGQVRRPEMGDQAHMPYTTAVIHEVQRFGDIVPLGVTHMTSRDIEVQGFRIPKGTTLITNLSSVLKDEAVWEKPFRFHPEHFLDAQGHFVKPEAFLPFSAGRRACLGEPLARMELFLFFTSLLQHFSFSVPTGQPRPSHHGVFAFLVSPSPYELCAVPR
The target in assay [8] is T2, Caspase-3 (Homo sapiens, UniProt P42574).
T2 sequence (P42574 whole entry): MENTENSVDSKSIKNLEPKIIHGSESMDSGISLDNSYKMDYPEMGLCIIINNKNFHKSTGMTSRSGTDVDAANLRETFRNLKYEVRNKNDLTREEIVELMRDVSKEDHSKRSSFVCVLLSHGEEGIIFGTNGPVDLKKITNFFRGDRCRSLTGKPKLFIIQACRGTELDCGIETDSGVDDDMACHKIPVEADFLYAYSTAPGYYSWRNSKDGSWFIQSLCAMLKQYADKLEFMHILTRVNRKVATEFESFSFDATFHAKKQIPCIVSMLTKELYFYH
As to the kind of experiment: procaspase-3 activation potency of dual hits, dose response, counter-screen for dual procaspase-3/7 activator project, biochemical, absorbance, PC-3 D3A mutant (AID 504328). A general note: Counterscreens check selectivity or assay interference.

Assay [9] concerns the target T3, Caspase-7 (Homo sapiens, UniProt P55210).
T3 sequence (P55210 whole entry): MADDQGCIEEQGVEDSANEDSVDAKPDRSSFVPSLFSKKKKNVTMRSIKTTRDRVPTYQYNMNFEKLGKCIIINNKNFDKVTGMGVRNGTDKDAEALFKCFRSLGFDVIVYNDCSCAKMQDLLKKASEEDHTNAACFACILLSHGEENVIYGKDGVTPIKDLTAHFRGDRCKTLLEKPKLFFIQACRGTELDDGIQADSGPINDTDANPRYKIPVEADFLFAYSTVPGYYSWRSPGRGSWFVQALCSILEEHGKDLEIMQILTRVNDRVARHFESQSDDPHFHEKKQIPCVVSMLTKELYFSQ
As to the kind of experiment: procaspase-7 activators, dose response, dual procaspase-3/-7 activator project, biochemical, absorbance, human (AID 504330).

A short description of assay [10]: inhibitors of HIV Env-driven cell fusion, dose response, cherry-pick (AID 652057). It counts as functional, cell-based.
The nature of assay [11]: Shn3 3'UTR reporter inhibitors, dose response, cell-based, Clone20 osteoblasts, firefly luciferase, cherry-picked (AID 624132).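 Note: firefly luciferase luminescence from reporter carrying the Shn3 3'UTR in osteoblasts.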 It counts as functional.
In assay [12] the target is T4, Zinc finger protein mex-5 (Caenorhabditis elegans, UniProt Q9XUB2).
T4 sequence (Q9XUB2 whole entry): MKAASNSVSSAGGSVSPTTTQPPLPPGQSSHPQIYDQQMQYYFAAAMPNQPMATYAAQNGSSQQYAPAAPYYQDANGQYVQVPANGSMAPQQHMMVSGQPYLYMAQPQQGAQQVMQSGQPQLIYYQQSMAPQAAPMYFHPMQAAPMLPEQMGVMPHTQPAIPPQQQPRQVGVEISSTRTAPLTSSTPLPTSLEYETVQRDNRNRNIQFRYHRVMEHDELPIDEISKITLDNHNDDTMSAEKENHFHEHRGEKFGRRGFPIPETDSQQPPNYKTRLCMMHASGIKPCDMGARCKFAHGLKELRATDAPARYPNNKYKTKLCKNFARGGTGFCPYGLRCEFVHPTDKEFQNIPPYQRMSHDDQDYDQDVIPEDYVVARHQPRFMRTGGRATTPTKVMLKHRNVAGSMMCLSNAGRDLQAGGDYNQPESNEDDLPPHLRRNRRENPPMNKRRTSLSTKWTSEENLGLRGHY
As to the kind of experiment: MEX-5/TCR-2 RNA interaction inhibitors, dose response, biochemical, C. elegans, fluorescence polarization (AID 1960).

Assay [13] can be described thus: C. albicans growth with fluconazole, confirmation, fluorescence, retest (AID 2467). It counts as functional, cell-based.
The target in assay [14] is Caspase-8 (Homo sapiens, UniProt Q14790). As to the kind of experiment: caspase-8 inhibition counter-screen, dose response, selectivity assay for caspase-6 inhibitor project, biochemical, Z-IETD-R110 fluorescence, cherry-picked samples (AID 743294).
Caspase-8, sequence (Q14790 217-374 limits assumed): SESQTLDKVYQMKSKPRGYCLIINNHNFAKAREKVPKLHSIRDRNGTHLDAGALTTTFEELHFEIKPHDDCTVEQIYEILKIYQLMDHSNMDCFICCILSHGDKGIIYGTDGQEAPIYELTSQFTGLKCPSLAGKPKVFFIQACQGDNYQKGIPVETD
Caspase-8, sequence (Q14790 385-479 limits assumed): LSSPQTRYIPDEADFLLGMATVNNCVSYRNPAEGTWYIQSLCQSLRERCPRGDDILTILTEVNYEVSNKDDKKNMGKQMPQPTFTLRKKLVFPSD
For assay [15], the target named is T5, Apoptotic protease-activating factor 1 (Homo sapiens, UniProt O14727).
T5 sequence (O14727 whole entry): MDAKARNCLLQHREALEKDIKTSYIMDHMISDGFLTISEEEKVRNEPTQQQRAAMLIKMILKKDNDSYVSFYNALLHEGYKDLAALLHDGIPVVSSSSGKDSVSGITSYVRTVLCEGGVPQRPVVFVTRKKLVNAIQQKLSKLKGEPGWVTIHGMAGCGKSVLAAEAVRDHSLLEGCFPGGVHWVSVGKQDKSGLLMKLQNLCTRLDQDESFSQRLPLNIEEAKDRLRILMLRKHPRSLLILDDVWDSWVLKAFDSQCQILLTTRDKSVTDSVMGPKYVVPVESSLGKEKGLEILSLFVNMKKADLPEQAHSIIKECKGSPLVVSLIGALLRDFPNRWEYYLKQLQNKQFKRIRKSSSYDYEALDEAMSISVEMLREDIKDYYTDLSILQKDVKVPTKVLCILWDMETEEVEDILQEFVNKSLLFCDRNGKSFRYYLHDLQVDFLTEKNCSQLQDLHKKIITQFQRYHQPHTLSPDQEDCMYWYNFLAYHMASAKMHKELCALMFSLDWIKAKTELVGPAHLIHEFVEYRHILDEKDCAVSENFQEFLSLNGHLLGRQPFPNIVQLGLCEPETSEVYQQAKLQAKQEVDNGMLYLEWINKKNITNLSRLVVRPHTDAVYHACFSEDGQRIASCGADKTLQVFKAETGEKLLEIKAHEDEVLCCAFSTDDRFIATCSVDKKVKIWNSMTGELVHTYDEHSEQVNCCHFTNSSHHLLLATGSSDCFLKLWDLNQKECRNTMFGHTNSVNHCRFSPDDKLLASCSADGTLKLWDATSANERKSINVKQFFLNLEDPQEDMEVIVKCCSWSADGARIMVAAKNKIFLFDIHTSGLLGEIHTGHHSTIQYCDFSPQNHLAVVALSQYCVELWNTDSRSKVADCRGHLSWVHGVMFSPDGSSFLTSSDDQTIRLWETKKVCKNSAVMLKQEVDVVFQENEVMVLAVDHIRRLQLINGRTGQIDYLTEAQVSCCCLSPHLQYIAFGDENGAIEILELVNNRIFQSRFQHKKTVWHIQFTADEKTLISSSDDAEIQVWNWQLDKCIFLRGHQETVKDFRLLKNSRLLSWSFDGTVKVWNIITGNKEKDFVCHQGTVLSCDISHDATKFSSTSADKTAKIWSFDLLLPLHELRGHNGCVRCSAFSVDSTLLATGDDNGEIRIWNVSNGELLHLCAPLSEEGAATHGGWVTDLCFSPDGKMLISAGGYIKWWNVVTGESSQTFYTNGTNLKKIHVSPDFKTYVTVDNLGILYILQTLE
It counts as functional.

Assay [16] addresses T6, RNA-binding protein pos-1 (Caenorhabditis elegans, UniProt G5EF15).
T6 sequence (G5EF15 whole entry): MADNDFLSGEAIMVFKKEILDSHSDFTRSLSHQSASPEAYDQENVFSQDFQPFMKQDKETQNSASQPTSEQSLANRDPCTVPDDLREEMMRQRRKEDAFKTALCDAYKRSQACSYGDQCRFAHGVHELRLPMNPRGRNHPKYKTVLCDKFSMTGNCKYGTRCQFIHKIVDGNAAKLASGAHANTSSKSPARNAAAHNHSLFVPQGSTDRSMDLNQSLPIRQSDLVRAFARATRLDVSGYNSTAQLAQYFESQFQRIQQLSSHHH
As to the kind of experiment: inhibitors of POS-1/mex-3 RNA binding, dose response, biochemical, fluorescence polarization (AID 1964).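 Note: purified POS-1 fused to maltose binding protein made in E. coli; potency of compounds blocking POS-1 binding to fluorescent RNA.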

In assay [17] the target is T7, Caspase-6 (Homo sapiens, UniProt P55212).
T7 sequence (P55212 whole entry): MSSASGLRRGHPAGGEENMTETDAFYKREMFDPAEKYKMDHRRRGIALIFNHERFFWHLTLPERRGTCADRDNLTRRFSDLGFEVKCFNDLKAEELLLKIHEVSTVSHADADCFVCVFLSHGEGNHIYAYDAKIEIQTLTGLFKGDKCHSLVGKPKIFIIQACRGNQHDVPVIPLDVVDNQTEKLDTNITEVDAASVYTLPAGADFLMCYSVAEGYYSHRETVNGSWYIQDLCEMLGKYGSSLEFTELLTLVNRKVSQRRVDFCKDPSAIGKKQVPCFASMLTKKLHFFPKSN
As to the kind of experiment: human caspase-6 inhibitors, dose response, biochemical, VEID-R110 fluorescence, cherry-pick (AID 720632).

Assay [18] can be described thus: control 3'UTR Renilla luciferase suppression, dose response, counter-screen for Shn3 inhibitor project, cell-based, Clone20-Shn3RL, cherry-picked (AID 624133). In kind it is functional.
The nature of assay [19]: HepG2 cell cytotoxicity, dose response, cytotoxicity control for Shn3 inhibitor project, CellTiter-Glo, cherry-picked (AID 624134). In kind it is functional, cell-based. A general note: ATP-based viability assays read luminescence as a measure of living cells.
The target of assay [20] is G-protein coupled receptor 35 (Homo sapiens, UniProt Q9HC97). As to the kind of experiment: GPR35 antagonists blocking zaprinast-driven arrestin recruitment, primary screen, imaging, U2OS, beta-arrestin-GFP, zaprinast agonist (AID 2058).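 Note: antagonist potency meaning inhibition of agonist-induced arrestin redistribution.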 In kind it is functional.
G-protein coupled receptor 35, sequence (Q9HC97 whole entry): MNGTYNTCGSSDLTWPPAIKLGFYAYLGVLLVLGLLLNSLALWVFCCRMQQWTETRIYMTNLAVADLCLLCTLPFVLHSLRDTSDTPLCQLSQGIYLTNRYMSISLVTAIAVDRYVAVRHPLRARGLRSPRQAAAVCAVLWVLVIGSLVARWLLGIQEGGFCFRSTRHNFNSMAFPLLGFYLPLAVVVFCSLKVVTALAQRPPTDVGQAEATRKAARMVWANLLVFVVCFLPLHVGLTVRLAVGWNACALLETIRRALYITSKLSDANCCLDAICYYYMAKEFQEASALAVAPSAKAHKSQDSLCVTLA
Assay [21] is described as follows: NIH-3T3 fibroblast cytotoxicity, dose response, cytotoxicity control, cell-based, fluorescence, Alamar Blue, secondary assay (AID 2327).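 Note: NIH-3T3 mouse fibroblasts cultured with fluconazole at 8 µg/mL.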 In kind it is functional.
In assay [22] the target is T3, Caspase-7. As to the kind of experiment: human caspase-7 inhibitors, dose response, selectivity assay for caspase-6 inhibitor project, biochemical, DEVD-R110 fluorescence, cherry-pick (AID 743295). It counts as […].
Assay [23] addresses T2, Caspase-3. As to the kind of experiment: caspase-3 enzyme inhibitors, selectivity check, dose response, selectivity assay for caspase-6 allosteric inhibitor project, biochemical, fluorescence, cherry-picked samples (AID 743291).

The structures appear in SMILES notation. Active and inactive are the calls of the source.

Potassium voltage-gated channel subfamily KQT member 2, sequence (O88943 whole entry): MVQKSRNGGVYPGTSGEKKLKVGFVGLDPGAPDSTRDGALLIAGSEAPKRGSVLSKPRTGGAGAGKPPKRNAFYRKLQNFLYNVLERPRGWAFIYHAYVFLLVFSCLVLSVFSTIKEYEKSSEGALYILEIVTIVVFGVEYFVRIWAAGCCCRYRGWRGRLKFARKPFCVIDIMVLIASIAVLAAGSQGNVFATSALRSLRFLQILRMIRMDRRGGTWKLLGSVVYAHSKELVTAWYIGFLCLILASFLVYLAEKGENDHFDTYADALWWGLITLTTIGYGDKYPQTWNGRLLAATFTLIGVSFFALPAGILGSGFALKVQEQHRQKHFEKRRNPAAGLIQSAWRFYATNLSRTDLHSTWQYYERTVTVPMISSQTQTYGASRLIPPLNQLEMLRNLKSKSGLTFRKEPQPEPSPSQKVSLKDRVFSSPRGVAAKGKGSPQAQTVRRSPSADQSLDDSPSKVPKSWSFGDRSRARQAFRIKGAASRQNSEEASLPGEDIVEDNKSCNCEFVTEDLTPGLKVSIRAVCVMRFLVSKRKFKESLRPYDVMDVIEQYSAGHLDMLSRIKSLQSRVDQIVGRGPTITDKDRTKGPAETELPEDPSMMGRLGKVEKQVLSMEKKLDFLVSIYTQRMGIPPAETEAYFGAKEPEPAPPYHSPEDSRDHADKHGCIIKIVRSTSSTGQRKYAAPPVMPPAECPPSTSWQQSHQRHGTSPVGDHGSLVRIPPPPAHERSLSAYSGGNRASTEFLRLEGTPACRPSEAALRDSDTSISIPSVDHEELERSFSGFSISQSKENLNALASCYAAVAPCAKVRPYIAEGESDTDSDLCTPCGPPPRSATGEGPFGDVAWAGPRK
Genome polyprotein, sequence (P29990 2492-3391 limits assumed): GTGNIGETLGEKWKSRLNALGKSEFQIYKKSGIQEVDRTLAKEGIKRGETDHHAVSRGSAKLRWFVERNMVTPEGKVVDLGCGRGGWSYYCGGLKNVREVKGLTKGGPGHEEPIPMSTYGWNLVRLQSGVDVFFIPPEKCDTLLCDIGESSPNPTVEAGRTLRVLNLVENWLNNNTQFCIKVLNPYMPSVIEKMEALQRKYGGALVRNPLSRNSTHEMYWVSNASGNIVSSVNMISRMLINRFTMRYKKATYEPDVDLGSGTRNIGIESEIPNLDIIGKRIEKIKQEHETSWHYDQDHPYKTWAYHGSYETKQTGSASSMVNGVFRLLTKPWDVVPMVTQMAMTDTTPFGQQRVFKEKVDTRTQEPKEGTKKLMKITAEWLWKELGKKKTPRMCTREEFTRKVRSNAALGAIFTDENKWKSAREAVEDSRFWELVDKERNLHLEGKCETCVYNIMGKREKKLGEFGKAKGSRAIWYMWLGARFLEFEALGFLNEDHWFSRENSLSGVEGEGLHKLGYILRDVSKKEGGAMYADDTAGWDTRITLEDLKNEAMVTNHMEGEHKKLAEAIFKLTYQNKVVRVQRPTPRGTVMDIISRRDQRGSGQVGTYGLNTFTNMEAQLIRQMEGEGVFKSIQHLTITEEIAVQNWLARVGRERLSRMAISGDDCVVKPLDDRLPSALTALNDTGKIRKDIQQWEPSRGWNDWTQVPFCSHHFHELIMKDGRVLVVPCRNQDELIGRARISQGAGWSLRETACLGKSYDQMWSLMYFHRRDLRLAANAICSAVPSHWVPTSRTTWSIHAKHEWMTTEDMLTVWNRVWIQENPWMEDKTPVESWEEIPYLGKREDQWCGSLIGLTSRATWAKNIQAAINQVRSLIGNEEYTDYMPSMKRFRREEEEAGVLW

For `Cc1ccc(NC(=O)Nc2cccnc2)cc1`, in [1], the EC50 is 128 µM (active).

`CCn1c(CSc2nnc3ccccn23)nc2cc(C(=O)O)ccc21`: the IC50 in assay [2] is > 75.4 µM (not active); in assay [4] it was 0.853 µM (active); in assay [5] it was 11.2 µM (inactive); in [6], 23.2 µM (active). Further, the AC50 in [3] is 50.1 µM (active).

As to `COc1ccc(Nc2ncc(C(=O)N3CCN(c4ccc(F)cc4)CC3)c3ccccc23)cc1`, the AC50 was 31.6 µM (inconclusive) in [7] and 49 µM (active) in assay [10]. In addition, the EC50 in [8] and in assay [9] was > 85.2 µM (inactive) in each case.

As for `CCOc1ccc2nc3cc(NCc4ccc(OC)cc4)ccc3c(N)c2c1`, the half-maximal activity concentration (AC50) in assay [11] is 6.69 µM (active); in assay [14], 25.9 µM (active); in assay [17] it was 4.3 µM (active); in assay [18], 23 µM (active); in assay [19], 16.5 µM (active); in assay [22] it was 9.75 µM (active). In addition, in [23], the AC50 is 21.2 µM (active). For the same compound, the EC50 is 3.94 µM (active) in [12], 2.76 µM (active) in assay [13], 4.47 µM (active) in assay [16] and > 150 µM (inconclusive) in [21]. In addition, the IC50 in assay [15] is 23.5 µM (active); in assay [20], 15.3 µM (inactive).

Broadly, the EC50 is the concentration giving half of the maximal effect. As a reminder, the IC50 is the concentration at which inhibition is half-maximal. One may read the AC50 as the concentration at which the activity in the assay is half-maximal.

Source of the values: ChEMBL document CHEMBL1201862, “PubChem BioAssay data set” (2004).
